# Test system: tyrosinase activity in B16 melanoma cells
# Assay: Tyrosinase activity in B16 melanoma cells (lysate, L-dopa to dopachrome, absorbance 475 nm)
# Type: cell-based
# Details: B16 cells treated for 3 days, untreated control = 100
# Source text: Tyrosinase is an oxidase that is the rate-limiting enzyme for controlling the production of melanin. The enzyme is mainly involved in two distinct reactions of melanin synthesis; firstly, the hydroxylation of a monophenol and secondly, the conversion of an o-diphenol to the corresponding o-quinone. o-quinone undergoes several reactions to eventually form melanin Tyrosinase is a copper-containing enzyme present in plant and animal tissues that catalyzes the production of melanin and other pigments from tyrosine by oxidation. It is found inside melanosomes which are synthesized in the skin melanocytes. In humans, the tyrosinase enzyme is encoded by the TYR gene.
# To measure the tyrosinase activity of the cells, the B16 cells treated for 3 days with several doses of compounds were lysed by incubation at 4° C. for 30 min in lysis buffer (20 mM sodium phosphate, pH 6.8, 1% Triton X-100, 1 mM PMSF, 1 mM EDTA) containing protease inhibitors cocktail. The lysates were centrifuged at 15,000×g for 10 min to obtain the supernatant as the source of tyrosinase. The reaction mixture contained 20 mM phosphate buffer, pH 6.8, 1.25 mM L-dopa (Sigma-Aldrich). After incubation at 37° C. for 2 h, dopachrome formation was monitored by measuring absorbance at a wavelength of 475 nm in a microplate reader (TECAN).
smiles,measurement,setting,value
CCCCCc1cc(O)c(C/C=C(\C)CCC=C(C)C)c(O)c1 [(−) CBG],Tyrosinase Activation,sample conc. 0.5 μg/ml,62%
same,Tyrosinase Activation,sample conc. 1 μg/ml,55%
CCCCCCCCCCCC=O [Aldehyde C12],Tyrosinase Activation,sample conc. 0.1 μg/ml,78%
same,Tyrosinase Activation,sample conc. 1 μg/ml,82%
C=CCOC(=O)COc1ccccc1 [Allyl phenoxyacetate],Tyrosinase Activation,sample conc. 1 μg/ml,62%
same,Tyrosinase Activation,sample conc. 10 μg/ml,50%
same,Tyrosinase Activation,sample conc. 50 μg/ml,48%
O=Cc1ccccc1 [Benzaldehyde],Tyrosinase Activation,sample conc. 10 μg/ml,75%
CC(=O)CCc1ccccc1 [Benzyl acetone],Tyrosinase Activation,sample conc. 5 μg/ml,90%
same,Tyrosinase Activation,sample conc. 25 μg/ml,80%
same,Tyrosinase Activation,sample conc. 100 μg/ml,90%
CC(C)=CCC(C)(C)C(=O)C(C)C [Claritone],Tyrosinase Activation,sample conc. 2.5 μg/ml,70%
C=CCOC(=O)COC1CCCCC1 [Cyclogalbanate],Tyrosinase Activation,sample conc. 10 μg/ml,73%
"CC(=O)OC1CC(C)CC(C)(C)C1 (stereo not shown) [Mintonat, Homomenthyl acetate]",Tyrosinase Activation,sample conc. 1 μg/ml,80%
COC(Cc1ccccc1)OC [Phenyl acetaldehyde dimethyl acetal],Tyrosinase Activation,sample conc. 10 μg/ml,80%
same,Tyrosinase Activation,sample conc. 100 μg/ml,78%
